From patent publication US20170168056A1, “METHODS AND COMPOSITIONS FOR DETECTING AND MODULATING CANCER CELLS” (Massachusetts Institute of Technology, priority 2015, published 2017)

Key:
MDA-MB-231 cells [1] = assay: Time-lapse microscopy of cell division; type: cell-based, human; conditions: for increase in time spent in cell division: 10 nM paclitaxel vs vehicle
Description: (§1) In vitro imaging. Glass bottom dishes were coated with Co11agen at 0.1 mg/mL diluted in PBS for 1 hour at 37° C. Cells expressing different MENA isoform were treated with paclitaxel at 1, 10 or 100 nM or vehicle and immediately plated on the glass bottom dishes. 30 minutes later, cells were imaged overnight, with one image acquired every 10 minutes for 16 hours on a Nikon spinning disk with a 20× objective and an Andor/NeoZyla camera. Individual cells were manually tracked using ImageJ and Manual Tracking plug-in. Data were analyzed using the chemotaxis tool developed by IBIDI. For analysis of time spent in cell division, the time between when the mother cell first rounds up, to when both daughter cells have spread out on substrate was measured. The percentage of successful cell divisions was quantified by counting the number of cell divisions that lead to two surviving daughter cells. Data are pooled from at least 50 cells tracked in three independent experiments.
One of the key steps in paclitaxel-induced cell death is cell arrest in the G2/M phases of the cell cycle. […] Time-lapse microscopy was performed to study the cell division phenotypes in more detail, and imaged cells expressing MENA isoforms while adherent on collagen (FIGS. 35D, 35E, 35F).

MDA-MB-231 cells [2] = assay: Cell viability assay (Prestoblue) in MDA-MB-231 cells expressing GFP, GFP-Mena or GFP-Mena^INV; conditions: 72 h of treatment with Taxol at 100 nM, 1 μm or 10 μM
Description: Cell viability assays were performed in a 96-well plate. 5,000 cells were plated per well and treated with drug 24 hours later. Cell viability was assayed 72 hours later using the PrestoBlue Cell Viability Reagent (Life Technologies), according to manufacturer's protocol. Fluorescence was measured and normalized to cells exposed to vehicle. The activity area was calculated from doseresponse plots using Matlab. All measurements were repeated in triplicate.

Mena, Mena^INV = assay: Mena and Mena^INV immunofluorescence in Control tumors from treated mice; type: in vivo, mouse; conditions: tissue sections of Control tumors from treated mice
Description: (§2) Taxol treatment induces increased Mena protein expression in vitro and in vivo. As high level of Mena or Mena^INV expression correlated with low response to Taxo, we hypothesized that Taxol treatment might affect Mena expression. […]. After 72 h of treatment with the drug, the expression level of Mena was 70% higher than in vehicle-treated cells.
Immunohistochemistry for Examples 16-22. Tumors dissected from NOD/SCID mice were fixed in 10% buffered formalin and embedded in paraffin. Tissue sections (5 μm thick) were deparaffinized followed by antigen retrieval using Citra Plus solution (Biogenex). After treatment with 3% H2O2, sections were blocked with serum, incubated with primary antibodies overnight at 4° C. and fluorescently labeled secondary antibodies at room temperature for 2 hours. Sections were stained using anti-MENA (1:500), biotinylated anti-MENA^INV (1:500), anti-CC3 (1:200), anti-Ki67 (1:200) and DAPI. Fluorochromes on secondary antibodies included AlexaFluor 488, 594 or 647 (Jackson Immunoresearch). Sections were mounted in Fluoromount mounting media and imaged at room temperature. […]
Paclitaxel treatment selects for high MENA expression in vitro and in vivo. […] First, endogenous MENA expression by Western Blot in 5 breast cancer cell lines that were exposed to 100 nM of paclitaxel or a vehicle control were analyzed (FIG. 33A).

MDA-MB-231 cells [3] = assay: In vitro imaging of cell velocity on collagen; type: cell-based, human; conditions: 231-Control, 231-MENA, 231-MENA^INV; paclitaxel 1, 10 or 100 nM
Description: as §1
MENA and MENA^INV drive increased cell motility and metastasis during tumor progression. Therefore, whether MENA isoform expression impacts cell migration and dissemination after paclitaxel treatment was examined.

Mena = Mena expression in cultured cells after taxane treatment (Western blot, FACS of GFP); type: cell-based, human
Description: as §2
Western blot. Cells were lysed in 25 mM Tris, 150 mM NaCl, 10% glycerol, 1% NP 40 and […] EDTA with a protease Mini-complete protease inhibitors (Roche) and a phosphatase inhibitor cocktail (PhosSTOP, Roche) at 4° C. for 20 minutes. Protein lysates were separated by SDS-PAGE, transferred to a nitrocellulose membrane and blocked with Odyssey Blocking Buffer (LiCor). Membranes were incubated with primary antibody overnight at 4° C. and Licor secondary antibodies at room temperature for 1 hour. Protein level intensity was measured with Image J.
Paclitaxel treatment selects for high MENA expression in vitro and in vivo. The Examples so far indicate that increased MENA or MENA^INV expression levels are associated with reduced responses to paclitaxel. The effect of paclitaxel treatment on levels of MENA expression in cell populations in vitro and in vivo was examined. First, endogenous MENA expression by Western Blot in 5 breast cancer cell lines that were exposed to 100 nM of paclitaxel or a vehicle control were analyzed (FIG. 33A).

CC(=O)O[C@H]1C(=O)[C@@]2(C)[C@H]([C@H](OC(=O)c3ccccc3)[C@]3(O)C[C@H](OC(=O)[C@H](O)[C@@H](NC(=O)c4ccccc4)c4ccccc4)C(C)=C1C3(C)C)[C@]1(OC(C)=O)CO[C@@H]1C[C@@H]2O [paclitaxel]
decrease in the number of successful divisions (MDA-MB-231 cells [1]; 231-Control cells, 10 nM paclitaxel): 40% | increase in time spent in cell division (MDA-MB-231 cells [1]; 231-Control cells): four-fold | increase in time spent in cell division (MDA-MB-231 cells [1]; 231-MENA and 231-MENA^INV cells): two-fold | successful cell divisions (MDA-MB-231 cells [1]; paclitaxel treated 231-MENA and 231-MENA^INV cells): over 90% | fraction of viable GFP-Mena or GFP-Mena^INV cells higher than fraction of viable GFP (Control) cells (MDA-MB-231 cells [2]): at least 65% | Mena and Mena^INV levels in Control tumors compared to vehicle (Mena, Mena^INV): significant increases in total MENA levels | Mena and Mena^INV levels in Control tumors compared to vehicle (Mena, Mena^INV; listed as Taxol): increase in expression of both global Mena levels and the Mena^INV isoform | cell velocity in vitro (MDA-MB-231 cells [3]): decreased velocity | endogenous MENA expression by Western Blot (Mena; 5 breast cancer cell lines, 100 nM paclitaxel, 72 hours, vs vehicle): some cell lines (MDA-MB-231 and MDA-MB-175VII) showed increased MENA expression | FACS analysis of GFP expression levels after taxane treatment (Mena; MDA-MB-231 populations expressing GFP, GFP-MENA or GFP-MENA^INV): selected for high-Mena^INV-GFP expressing cells | expression level of Mena higher than in vehicle-treated cells (Mena; after 72 h of treatment): 70%
